Values of other authors in patent US20170065526A1, “SOLID DOSAGE FORM OF RIVAROXABAN AND METHODS FOR MAKING THE SAME” (priority 2015, published 2017).
≈ marks a conversion by molar mass, not a printed value.

Details: relatively poor solubility, background statement

solubility: ~7 µg/mL (≈ 16.1 µM)
SMILES: O=C(NC[C@H]1CN(c2ccc(N3CCOCC3=O)cc2)C(=O)O1)c1ccc(Cl)s1 [rivaroxaban, (S)-5-chloro-N-{[2-oxo-3-[4-(3-oxomorpholin-4-yl)phenyl]oxazolidin-5-yl]methyl}thiophene-2-carboxamide]
